According to US20100203123A1, “METHODS FOR IMPROVING COGNITIVE FUNCTION AND DECREASING HEART RATE” (MARTEK BIOSCIENCES CORPORATION, priority 2009, published 2010):

Experiments:
[1] = test system: healthy elderly subjects with a mild memory complaint; test: Mini-Mental State Examination (MMSE); format: in vivo, human; conditions: 6 month study, not different between groups
Description: During the Screening Period, subjects were selected on the basis of specific inclusion and exclusion criteria, including a screening Logical Memory sub-test of the Wechsler Memory Scale (WMS III). See e.g., Wechsler, D., Administration and Scoring Manual, 3rd ed. San Antonio, Tex.: Harcourt Brace & Company, 1997. In addition to the Logical Memory sub-test, the Mini-Mental State Examination (MMSE), Geriatric Depression scale, and a test of visual acuity and a DHA Food Frequency Questionnaire were administered to all subjects at screening. See e.g., Folstein et al., Pyschiatr. Res. 12:189-198 (1975); Yesavage J., et al., J Psychiatr. Res. […] (1982). Eligible subjects who meet the screening criteria were given a pre-baseline training session with the computerized cognitive battery, CANTAB.
Other secondary measures included self-assessment tests of memory (Frequency of Forgetting-10 scale) (Zelinski, E. M. et al., Aging and Mental Health […]), Alzheimer's Disease Cooperative Study-Activities of Daily Living Prevention Instrument (ADCS-ADL PI scale) (Galasko, D., Alzheimer Dis. Assoc. Disord. 20:S152-69 (200)), Mini-Mental State Examination (MMSE) (Folstein et al., Pyschiatr. Res. 12:189-198 (1975) and the Geriatric Depression Scale (Yesavage, J., et al., J Psychiatr. Res. […]).

[2] = test system: healthy elderly subjects with a mild memory complaint; test: CANTAB Verbal Recognition Memory (VRM) test; format: in vivo, human
Protocol: The effects of DHA (about 900 mg/day) versus placebo was tested to determine whether cognitive measures of memory, attention, and executive function were improved, utilizing the Cambridge Neuropsychological Test Automated Battery (CANTAB) cognitive battery, in healthy elderly subjects with a mild memory complaint. One objective of the study was to determine the effect of DHA administration versus placebo on improving cognitive functions (i.e., working memory, memory retention, attention, processing speed, and executive function) in healthy elderly with a subjective memory complaint. Another objective of the study included determining the effects of DHA on visual acuity, levels of plasma phospholipids, and evaluating the safety and tolerability of the DHA dose administered.
The DHA group was provided 800 mg soft-gelatin capsules, each containing about 300 mg DHA as a triglyceride from algal oil (DHASCO®-S oil, 40% DHA). In addition to 40% DHA, DHASCO®-S oil was formulated to contain 40-60% saturated, mono- and polyunsaturated fatty acids, 400 ppm ascorbyl palmitate, 2000 ppm mixed tocopherols, 2000 ppm rosemary extract, 3% orange-flavoring, and 1% natural masking agent. Subjects were instructed to take three 800 mg capsules/day, i.e., about 900 mg DHA/day.
The secondary efficacy endpoints included: • CANTAB tests of executive function and planning: Spatial Working Memory […] and Stockings of Cambridge (SOC) • CANTAB Verbal Recognition Memory test (VRM) • CANTAB Pattern Recognition test (PRM) • Visual acuity (measured by Snellen Eye chart; corrected vision) • Memory Functioning Questionnaire: Frequency of Forgetting-10 (Self-rating scale) • Activities of Daily Living (ADCS-ADL PI) scale (Self-rating) • Clinical measures of cognitive function and computerized assessments were administered by (CANTAB) certified examiners at each site blinded to the subject's treatment. • Description of CANTAB Battery of tests
Additional tests are included in CANTABeclipse and are available in the CANTABelect batteries. […]

Q: With `CC/C=C\C/C=C\C/C=C\C/C=C\C/C=C\C/C=C\CCC(=O)O` [DHA, (all-Z)-4,7,10,13,16,19-docosahexaenoic acid] as the compound, how does the “MMSE, global cognitive function” value [1] read?
A: unchanged

Q: What about the “VRM delayed recognition, change from baseline correct responses, diff. versus placebo” value ([2]; about 900 mg/d, p<0.02) of the same compound?
A: 0.4±0.18

Q: And the “VRM immediate recognition, change from baseline correct responses, diff. versus placebo” value ([2]; about 900 mg/d, p<0.02)?
A: 0.4±0.17

Q: And the “CANTAB Verbal recognition memory, effect of DHA supplementation” value ([2]; about 900 mg/day, 6 months)?
A: modestly improved
